# Where a SMILES comes first, the peptide text is derived from it. [ ]: non-standard residue; d: D form.
# Key:
# [1] = test system: Pseudomonas aeruginosa (clinical strain 12); test: MIC measurement, broth microdilution; assay type: cell-based; conditions: 37° C. for 20 hours; tested twice, first/second value where not matched
# Experimental: (CLSI), but, in this Example, its measurement was carried out by a broth microdilution method in accordance with “M100-S17/M7-A7” (Performance Standards for Antimicrobial Susceptibility Testing; Seventeenth Informational Supplement, Vol. 27 No. 1) published by CLSI on January, 2007. That is, sensitivity test of agents was carried out using a microtiter plate or test tubes.
# Each peptide was prepared to an optional concentration, and the solutions were serially diluted from the concentration. The polypeptide at each concentration stage was added to a microplate or test tubes, and the bacterial suspension was added thereto.
# [2] = test system: Normal human dermal fibroblasts (NHDFs); assay type: cell-based
# Experimental: Next, the effect of these polypeptides on the growth of human umbilical vein endothelial cells (HUVECs) was studied. A cell growth activity of the polypeptides was examined using Cell Counting Kit (WST-1) available from Dojindo Laboratories. As a negative control (Control), polypeptide-free group was used. Cells (human umbilical vein endothelial cells: HUVECs) were plated in a 96-well plate (0.5×10^4 cells/well/100 μL, serum 1%). About 3 hours after plating the cells, the polypeptides (1, 3, 10, 30 or 100 μg/ml) and FGF (100 ng/ml) as a positive control were individually added thereto in an amount of 100 μL. To the unstimulated group, only a medium was added in an amount of 100 μL. The plate was left to stand in a CO2 incubator for about 48 hours. Thereafter, WST-1 reagent was added to each well in an amount of 20 μL, and then the plate was left to stand in a CO2 incubator for about 2 hours. Absorbances at wavelengths of 450 nm and 620 nm were measured using Wallac 1420 ARVOsx (Program: WST-1). A value of O.D.450-O.D.620 was calculated for each measurement. […] The cell growth activity was evaluated on the basis of the ratio of Net O.D.450 of polypeptide-containing groups relative to Net O.D.450 of the unstimulated group.
# Then, the effect on the growth of normal human dermal fibroblasts (NHDFs) was also studied by the same method as described above.
# [3] = Stability in rat serum (HPLC); assay type: in vitro ADME; conditions: 37° C.
# Experimental: The stability of the polypeptides in serum was evaluated. In human serum (purchased from KAC Co., Ltd.), or in rat serum obtained by collecting blood from a rat, then leaving the collected blood to stand at room temperature followed by centrifugation, each of the peptides was dissolved so as to attain a final concentration of 500 μg/mL, and the obtained solutions were left to stand at 37° C. After leaving to stand for 3 min or 10 min, these solutions were subjected to HPLC chromatogram analysis to detect peaks of the decomposition products, and calculate the ratio of the concentration of the peptides which remained in the solutions relative to the starting concentration. In addition, the half-lives of the peptides in serum were also calculated.
# [4] = test system: rat infected-wound model (wound infected with Staphylococcus aureus); test: Healing effect in infected wounds; assay type: in vivo; conditions: 50 μg dropwise Days 0-3 with Staphylococcus aureus, followed to Day 10; vs bFGF formulation 3 μg
# Experimental: Referring to Stenberg B D et al. (J Surg Res. 1991 January; 50(1):47-50.) and Hayward P et al. (Am J Surg. 1992 March; 163(3):288-93.), a rat infected-wound model was produced as described below. HWY/slc hairless rats (male, 7-week old, obtained from Japan SLC, Inc.) were used. The day before full-thickness defects were created, the number of leukocytes was measured and cyclophosphamide was administered in tail vein (100 mg/kg). On the next day, the number of leukocytes was counted. Only the individuals in which the number of leukocytes was not more than 5000, were used. A square-shaped full-thickness defects of 1.73×1.73 cm (about 3 cm^2) were created on the back of the rats, and 25 μL of Staphylococcus aureus (about 10^5 CFU/25 μL) and SR-07 or SR-08 peptide as a test substance (2 mg/mL) was added dropwise onto the defect sites (the administered amount was 50 μg). On the other hand, 25 μL of the bFGF formulation (3 μg/25 μL) was added dropwise in the bFGF formulation (a positive control) group, and 25 μL of physiological saline was added dropwise in the negative control groups. […] From the day when the full-thickness defects were created to Day 10, the area where the wounds had still not healed was measured to calculate the ratio of it relative to the area where the wounds were created, and the results were shown in graphs (FIG. 9 (SR-07) and FIG. 10 (SR-08)).
smiles,measurement,setting,value
CC[C@H](C)[C@H](NC(=O)[C@H](CC(C)C)NC(=O)[C@H](CCCCN)NC(=O)[C@@H](N)CC(C)C)C(=O)N[C@@H](Cc1ccccc1)C(=O)N[C@@H](CC(C)C)C(=O)N[C@@H](Cc1c[nH]cn1)C(=O)N[C@@H](CCCNC(=N)N)C(=O)N[C@@H](CC(C)C)C(=O)N[C@@H](CCCCN)C(=O)N[C@@H](CCCNC(=N)N)C(=O)N[C@@H](CCSC)C(=O)N[C@@H](CCCNC(=N)N)C(=O)N[C@@H](CCCCN)C(=O)N[C@@H](CCCNC(=N)N)C(=O)N[C@@H](CC(C)C)C(=O)N[C@H](CCCCN)C(=O)N[C@@H](CCCNC(=N)N)C(=O)N[C@@H](CCCCN)C(N)=O [SR-08] (H-LKLIFLHRLKRMRKRL[dK]RK-NH2; N-terminus assumed),"MIC, Pseudomonas aeruginosa (clinical strain 12)",[1],16/32
same,"Concentration above which the polypeptide tended to exhibit toxicity, NHDFs (FIG. 4)",[2],> 30 µg/mL
same,"Ratio of peptide remaining relative to the starting concentration, rat serum, 0 min","[3]; 500 μg/mL, 0 min",100
same,"remaining at 0.05 h, 500 μg/mL","[3]; rat, rat serum, 3 min, read-out: Ratio of peptide remaining relative to the starting concentration, rat serum, 3 min",87%
same,"remaining at 10 min, 500 μg/mL","[3]; rat, rat serum, 10 min, read-out: Ratio of peptide remaining relative to the starting concentration, rat serum, 10 min",86.9%
same,half-life,"[3]; rat, serum, 500 μg/mL",60 min
same,"Healing effect on infected wounds (unhealed area ratio, FIGS. 9 and 10)",[4],showed a higher healing effect on infected wounds than the bFGF formulation
